Reference: patent publication US8354382B2, “Hemifumarate of a pyrazole derivative” (Kissei Pharmaceutical Co., Ltd., priority 2008, dated 2013)

Columns and labels:
[1] = Storage Stability Test (Deliquescence); type: physicochemical; conditions: stored at 40° C. and 75% relative humidity; up to 2 months
Description: The hemifumarate dihydrate of Example 1, the ¾ fumarate dihydrate of Comparative Example 1 and the above compound (B) were stored under a condition of 40° C. and 75% relative humidity, and existence or nonexistence of the deliquescence was examined.

[2] = Storage Stability Test (Purity), purity by HPLC and appearance after storage; type: physicochemical; conditions: for Purity (%) after 2 months / Purity (%) at initial point: HPLC
Description: The hemifumarate dihydrate of Example 1 and the above compound (B) each were stored under a condition of 40° C. and 75% relative humidity and 60° C. in open vessels, and the storage stability for 2 months was examined. […] Measurement conditions of HPLC are as follows.
Detector: ultraviolet-visible absorption spectrophotometer, wavelength: 225 nm
Column: LUNA C18(2) (produced by Phenomenex), 5 μm, 4.6×250 mm, particle diameter 100×10^−10 m
Column Temperature: a constant temperature of around 25° C.
Sample concentration: 1 mg/mL
Mobile phase A: 10 mM dipotassium hydrogenphosphate aqueous solution adjusted to pH 7.8 with phosphoric acid
Mobile phase B: acetonitrile
Gradient of concentration:
0 minute: Mobile phase B=22%
30 minutes: Mobile phase B=22%
50 minutes: Mobile phase B=70%
60 minutes: Mobile phase B=70%
Range of area measurement: for 50 minutes from the start of analysis, except for the areas of the peak of fumaric acid (retention time 2 minutes), the peak of diethyl fumarate which is an impurity (retention time around 44 minutes) and the peak of the blank solution.

[3] = storage condition 40° C. and 75% relative humidity
[4] = storage condition 60° C. in open vessels

| Purity (%) after 2 months [2, 3] | Purity (%) at initial point [2, 3] | Appearance after 2 months [2, 4] | Purity (%) after 2 months [2, 4] | Appearance at initial point [2, 4] | Purity (%) at initial point [2, 4] | Compound | existence or nonexistence of the deliquescence [1] |
| --- | --- | --- | --- | --- | --- | --- | --- |
|  |  |  |  |  |  | Cc1cc(OCCCNCC(C)(C)C(N)=O)ccc1Cc1c(O[C@@H]2O[C@H](CO)[C@@H](O)[C@H](O)[C@H]2O)n[nH]c1C(C)C.O.O.O=C(O)/C=C/C(=O)O [Comparative Example 1, 3-(3-{4-[3-(β-D-Glucopyanosyloxy)-5-isopropyl-1H-pyazol-4-ylmethyl]-3-methyl-phenoxy}propylamino)-2,2-dimethylpropionamide ¾ fumarate dihydrate] | deliquescence was observed from the initial point of the experiment |
| 99.6% | 99.5% | White | 99.0% | White | 99.5% | Cc1cc(OCCCNCC(C)(C)C(N)=O)ccc1Cc1c(O[C@@H]2O[C@H](CO)[C@@H](O)[C@H](O)[C@H]2O)n[nH]c1C(C)C.O=C(O)/C=C/C(=O)O [Example 1, 3-(3-{4-[3-(β-D-Glucopyranosyloxy)-5-isopropyl-1H-pyrazol-4-ylmethyl]-3-methylphenoxy}propylamino)-2,2-dimethylpropionamide hemifumarate dihydrate] | no deliquescence during 2 months |
| 97.0% | 98.7% | Brown | 95.3% | White | 98.7% | Cc1cc(OCCCNCC(C)(C)C(N)=O)ccc1Cc1c(O[C@@H]2OC(CO)[C@@H](O)C(O)C2O)n[nH]c1C(C)C (stereo partly drawn) [compound (B), 3-(3-{4-[3-(β-D-Glucopyanosyloxy)-5-isopropyl-1H-pyazol-4-ylmethyl]-3-methylphenoxy}propylamino)-2,2-dimethylpropionamide] | deliquescence was observed from the initial point of the experiment |
